Experimental data published in patent US20060069132A1, “Azolecarboxamide herbicides” (priority 2004, published 2006).

Assays:
[1] = system: barnyardgrass; experiment: Test B pre-/postemergence herbicide test; assay type: in vivo, Echinochloa crus-galli; conditions: for Plant response rating (0 to 100 scale), Barnyardgrass: 0 is no effect, preemergence
Summary of the method: (§1)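 Flooded paddy rice and barnyardgrass were treated at the 2-leaf stage; upland plantings received compound either on sown seed or on 1- to 4-leaf seedlings. All were kept 13–15 days in a greenhouse and scored visually, 0–100, relative to untreated plants.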

[2] = system: Surinam grass; experiment: Test B pre-/postemergence herbicide test; assay type: in vivo, Urochloa decumbens; conditions: for Plant response rating (0 to 100 scale), Surinam Grass: 0 is no effect, 100 is complete control, preemergence; for Surinam Grass plant response rating: scale 0 (no effect) to 100 (complete control)
Summary of the method: (§2)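 Test chemicals in a non-phytotoxic solvent mixture with surfactant were applied preemergence to seeded species and postemergence to plants 2-18 cm tall (1- to 4-leaf stage); rice and barnyardgrass were also tested in a flooded paddy at the 2-leaf stage. Visual rating versus controls after 13-15 days in greenhouse, scale 0 (no effect) to 100 (complete control).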

[3] = system: cocklebur; experiment: Test B pre-/postemergence herbicide test; assay type: in vivo, Xanthium strumarium; conditions: for Plant response rating (0 to 100 scale), Cocklebur: 0 is no effect, preemergence
Summary of the method: as §1

[4] = system: corn; experiment: Test B pre-/postemergence herbicide test; assay type: in vivo, Zea mays; conditions: for Plant response rating (0 to 100 scale), Corn: 0 is no effect, preemergence
Summary of the method: as §2

[5] = system: large crabgrass; experiment: Test B pre-/postemergence herbicide test; assay type: in vivo, Digitaria sanguinalis; conditions: for Plant response rating (0 to 100 scale), Crabgrass, Large: 0 is no effect, preemergence
Summary of the method: as §2

[6] = system: giant foxtail; experiment: Test B pre-/postemergence herbicide test; assay type: in vivo, Setaria faberi; conditions: for Plant response rating (0 to 100 scale), Foxtail, Giant: 0 is no effect, preemergence
Summary of the method: as §2

[7] = system: lambsquarters; experiment: Test B pre-/postemergence herbicide test; assay type: in vivo, Chenopodium album; conditions: for Plant response rating (0 to 100 scale), Lambsquarters: 0 is no effect, 100 is complete control, preemergence; for Lambsquarters plant response rating: scale 0 (no effect) to 100 (complete control)
Summary of the method: as §2

[8] = system: morningglory; experiment: Test B pre-/postemergence herbicide test; assay type: in vivo, Ipomoea coccinea; conditions: for Plant response rating (0 to 100 scale), Morningglory: 0 is no effect, 100 is complete control, preemergence; for Morningglory plant response rating: scale 0 (no effect) to 100 (complete control)
Summary of the method: as §1

[9] = system: pigweed; experiment: Test B pre-/postemergence herbicide test; assay type: in vivo, Amaranthus retroflexus; conditions: for Plant response rating (0 to 100 scale), Pigweed: 0 is no effect, 100 is complete control, preemergence; for Pigweed plant response rating: scale 0 (no effect) to 100 (complete control)
Summary of the method: as §2

[10] = system: velvetleaf; experiment: Test B pre-/postemergence herbicide test; assay type: in vivo, Abutilon theophrasti; conditions: for Plant response rating (0 to 100 scale), Velvetleaf: 0 is no effect, 100 is complete control, preemergence; for Velvetleaf plant response rating: scale 0 (no effect) to 100 (complete control)
Summary of the method: as §2

[11] = system: blackgrass; experiment: Test B postemergence herbicide test; assay type: in vivo, Alopecurus myosuroides
Summary of the method: (§3)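 After treating 2-leaf paddy plants or 2–18 cm postemergence plants (1 to 4 leaves) with formulated chemical, researchers kept them in a greenhouse for 13–15 days. Effects were judged visually versus controls: 0 indicates none, 100 total control.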

[12] = system: wheat; experiment: Test B postemergence herbicide test; assay type: in vivo, Triticum aestivum; design: key to Wheat plant response rating: 0 = no effect, 100 = complete control
Summary of the method: (§4)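 Visual ratings, 0 (no effect) to 100 (complete control), made versus controls after 13–15 d greenhouse. Paddy plants treated at 2-leaf stage; postemergence plants at 1- to 4-leaf stage, 2–18 cm tall.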

[13] = system: wild oat; experiment: Test B postemergence herbicide test; assay type: in vivo, Avena fatua; conditions: scale 0 (no effect) to 100 (complete control)
Summary of the method: as §4

[14] = system: rice; experiment: Test B flooded paddy test; assay type: in vivo, Oryza sativa; conditions: 1000 g ai/ha, scale 0 to 100 (0 no effect, 100 complete control)
Summary of the method: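 Paddy species grown to the 2-leaf stage under flooding; blackgrass sprayed postemergence at 2–18 cm (1- to 4-leaf stage). Plants kept in a greenhouse for 13 to 15 days, then visually rated against controls on 0 (no effect) to 100 (complete control).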

[15] = system: small flower umbrella sedge; experiment: Test B flooded paddy test; assay type: in vivo, Cyperus difformis; conditions: 1000 g ai/ha, scale 0 to 100 (0 no effect, 100 complete control)
Summary of the method: as §3

[16] = system: ducksalad; experiment: Test B flooded paddy test; assay type: in vivo, Heteranthera limosa; conditions: 1000 g ai/ha, scale 0 to 100 (0 no effect, 100 complete control)
Summary of the method: as §3

[17] = system: barnyardgrass; experiment: Test B flooded paddy test; assay type: in vivo, Echinochloa crus-galli; conditions: 1000 g ai/ha, scale 0 to 100 (0 no effect, 100 complete control)
Summary of the method: as §3

[18] = 125 g ai/ha, 100 is complete control
[19] = 125 g ai/ha, visual rating, scale 0 (no effect) to 100 (complete control), postemergence
[20] = Postemergence, 500 g ai/ha, scale 0 (no effect) to 100 (complete control)
[21] = 125 g ai/ha, visual rating, postemergence
[22] = 500 g ai/ha, scale 0 to 100, 0 no effect, 100 complete control, preemergence
[23] = postemergence, 500 g ai/ha, scale 0 to 100, 0 is no effect, 100 is complete control

**Q.** What does the source list for CCN(C)C(=O)c1ccc(F)c(NC(=O)c2nn(C(C)C)nc2C)c1 [Compound 403]?
**A.** Plant response rating (0 to 100 scale), Barnyardgrass [1, 18]: 0; Barnyardgrass plant response rating [1, 19]: 0; Barnyardgrass plant response rating [1, 20]: 0; Plant response rating (0 to 100 scale), Surinam Grass ([2]; 125 g ai/ha): 0; Surinam Grass plant response rating [2, 21]: 0; Surinam Grass plant response rating ([2]; Postemergence, 500 g ai/ha): 10; Plant response rating (0 to 100 scale), Cocklebur [3, 18]: 0; Cocklebur plant response rating [3, 19]: 0; Cocklebur plant response rating [3, 20]: 0; Plant response rating (0 to 100 scale), Corn [4, 18]: 0; Corn plant response rating [4, 19]: 0; Corn plant response rating [4, 20]: 0; Plant response rating (0 to 100 scale), Crabgrass, Large [5, 18]: 0; Crabgrass, Large plant response rating [5, 19]: 0; Crabgrass, Large plant response rating [5, 20]: 0; Plant response rating (0 to 100 scale), Foxtail, Giant [6, 18]: 0; Foxtail, Giant plant response rating [6, 19]: 0; Foxtail, Giant plant response rating [6, 20]: 0; Plant response rating (0 to 100 scale), Lambsquarters ([7]; 125 g ai/ha): 0; Lambsquarters plant response rating [7, 21]: 0; Lambsquarters plant response rating ([7]; Postemergence, 500 g ai/ha): 10; Plant response rating (0 to 100 scale), Morningglory ([8]; 125 g ai/ha): 0; Morningglory plant response rating [8, 21]: 0; Morningglory plant response rating ([8]; Postemergence, 500 g ai/ha): 0; Plant response rating (0 to 100 scale), Pigweed ([9]; 125 g ai/ha): 0; Pigweed plant response rating [9, 21]: 0; Pigweed plant response rating ([9]; Postemergence, 500 g ai/ha): 0; Plant response rating (0 to 100 scale), Velvetleaf ([10]; 125 g ai/ha): 0; Velvetleaf plant response rating [10, 21]: 0; Velvetleaf plant response rating ([10]; Postemergence, 500 g ai/ha): 10; Blackgrass plant response rating [11, 19]: 0; Blackgrass plant response rating [11, 20]: 0; Wheat plant response rating [12, 19]: 0; Wheat plant response rating [12, 22]: 0; Wheat plant response rating [12, 20]: 0; Oat, Wild plant response rating [13, 21]: 0; Oat, Wild plant response rating ([13]; Postemergence, 500 g ai/ha): 0; Rice plant response rating [14]: 0; Sedge, Umbrella plant response rating [15]: 10; Ducksalad plant response rating [16]: 0; Barnyardgrass plant response rating [17]: 0

**Q.** Which results are given for CCNC(=O)c1ccc(F)c(NC(=O)c2nn(C(C)(C)CC)nc2CC)c1 [Compound 370]?
**A.** Plant response rating (0 to 100 scale), Barnyardgrass [1, 18]: 10; Barnyardgrass plant response rating [1, 19]: 0; Barnyardgrass plant response rating [1, 23]: 0; Plant response rating (0 to 100 scale), Surinam Grass ([2]; 125 g ai/ha): 0; Surinam Grass plant response rating [2, 21]: 10; Surinam Grass plant response rating ([2]; Postemergence, 500 g ai/ha): 10; Plant response rating (0 to 100 scale), Cocklebur [3, 18]: 0; Cocklebur plant response rating [3, 19]: 0; Cocklebur plant response rating [3, 23]: 0; Plant response rating (0 to 100 scale), Corn [4, 18]: 0; Corn plant response rating [4, 19]: 10; Corn plant response rating [4, 23]: 10; Plant response rating (0 to 100 scale), Crabgrass, Large [5, 18]: 10; Crabgrass, Large plant response rating [5, 19]: 10; Crabgrass, Large plant response rating [5, 23]: 10; Plant response rating (0 to 100 scale), Foxtail, Giant [6, 18]: 0; Foxtail, Giant plant response rating [6, 19]: 0; Foxtail, Giant plant response rating [6, 23]: 20; Plant response rating (0 to 100 scale), Lambsquarters ([7]; 125 g ai/ha): 80; Lambsquarters plant response rating [7, 21]: 0; Lambsquarters plant response rating ([7]; Postemergence, 500 g ai/ha): 20; Plant response rating (0 to 100 scale), Morningglory ([8]; 125 g ai/ha): 0; Morningglory plant response rating [8, 21]: 10; Morningglory plant response rating ([8]; Postemergence, 500 g ai/ha): 20; Plant response rating (0 to 100 scale), Pigweed ([9]; 125 g ai/ha): 40; Pigweed plant response rating [9, 21]: 0; Pigweed plant response rating ([9]; Postemergence, 500 g ai/ha): 30; Plant response rating (0 to 100 scale), Velvetleaf ([10]; 125 g ai/ha): 0; Velvetleaf plant response rating [10, 21]: 10; Velvetleaf plant response rating ([10]; Postemergence, 500 g ai/ha): 20; Blackgrass plant response rating [11, 19]: 0; Blackgrass plant response rating [11, 23]: 10; Wheat plant response rating [12, 19]: 0; Wheat plant response rating [12, 22]: 0; Wheat plant response rating [12, 20]: 0; Oat, Wild plant response rating [13, 21]: 0; Oat, Wild plant response rating ([13]; Postemergence, 500 g ai/ha): 0; Rice plant response rating [14]: 30; Sedge, Umbrella plant response rating [15]: 40; Ducksalad plant response rating [16]: 60; Barnyardgrass plant response rating [17]: 0
